This passage reports IC50 results from ChEMBL document CHEMBL3638971, “Fused pyrimidines” (2015).

Values joined by “and” are separate entries in the source; they are usually repeats but may differ in a detail not shown here. Equal entries are not always repeated.

Test [1] deals with RAC-alpha serine/threonine-protein kinase (Homo sapiens, UniProt P31749). As to the kind of experiment: TR-FRET Assay: Akt1 inhibitory activity of compounds of the present invention may be quantified0 employing the Akt1 TR-FRET assay as described in the following paragraphs. His-tagged human recombinant kinase full-length Akt1 expressed in insect cells was purchased form Invitrogen (part number PV 3599). As substrate for the kinase reaction the biotinylated peptide biotin-Ahx-KKLNRTLSFAEPG (C-terminus in am- ide form) was used which can be purchased e.g. from the company Biosynthan GmbH (Berlin-Buch, Germany).For the assay 50 nl of a IOOfold concentrated solution of the test compound in DMSO was pipetted into a black low volume 384well microtiter plate (Greiner Bio- One, Frickenhausen, Germany), 2 ul of a solution of Akt1 in assay buffer [50 mM TRIS/HCI pH 7.5, 5 mM MgCI2, 1 mM dithiothreitol, 0.02% (v/v) Triton X-100 (Sigma)] were added and the mixture was incubated for 15 min at 22C to allow pre-binding of the test compounds to the enzyme before the start of the kinase reaction.
Sequence of RAC-alpha serine/threonine-protein kinase (P31749 whole entry): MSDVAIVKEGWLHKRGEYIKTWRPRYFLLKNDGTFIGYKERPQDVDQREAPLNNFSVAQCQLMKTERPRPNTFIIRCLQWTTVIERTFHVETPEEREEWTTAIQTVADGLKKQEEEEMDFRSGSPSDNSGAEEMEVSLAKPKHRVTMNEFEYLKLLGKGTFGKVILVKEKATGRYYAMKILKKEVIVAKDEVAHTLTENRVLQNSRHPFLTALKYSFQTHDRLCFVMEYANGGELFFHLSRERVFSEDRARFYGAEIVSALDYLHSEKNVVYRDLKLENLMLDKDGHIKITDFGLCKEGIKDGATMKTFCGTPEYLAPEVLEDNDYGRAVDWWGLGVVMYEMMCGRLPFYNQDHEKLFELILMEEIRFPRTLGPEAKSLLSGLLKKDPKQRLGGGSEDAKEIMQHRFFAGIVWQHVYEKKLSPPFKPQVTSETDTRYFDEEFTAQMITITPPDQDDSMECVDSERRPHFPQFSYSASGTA

In test [2] the target is RAC-beta serine/threonine-protein kinase (Homo sapiens, UniProt P31751). The test is described as follows: TR-FRET Assay: Akt2 inhibitory activity of compounds of the present invention was quantified employing the Akt2 TR-FRET assay as described in the following paragraphs.His-tagged human recombinant kinase full-length Akt2 expressed in insect cells and activated by PDK1 was purchased form Invitrogen (part number PV 3975). As substrate for the kinase reaction the biotinylated peptide biotin-Ahx- KKLNRTLSFAEPG (C-terminus in amide form) was used which can be purchased e.g. from the company Biosynthan GmbH (Berlinn-Buch, Germany). For the assay 50 nl of a 10Ofold concentrated solution of the test compound in DMSO was pipetted into a black low volume 384well microtiter plate (Greiner Bio- One, Frickenhausen, Germany), 2 ul of a solution of Akt2 in assay buffer [50 mM TRIS/HCI pH 7.5, 5 mM MgCI2, 1 mM dithiothreitol, 0.02% (v/v) Triton X-100 (Sigma)] were added and the mixture was incubated for 15 min at 22C to allow pre-binding of the test compounds to the enzyme before the start of the kinase reaction.
Sequence of RAC-beta serine/threonine-protein kinase (P31751 whole entry): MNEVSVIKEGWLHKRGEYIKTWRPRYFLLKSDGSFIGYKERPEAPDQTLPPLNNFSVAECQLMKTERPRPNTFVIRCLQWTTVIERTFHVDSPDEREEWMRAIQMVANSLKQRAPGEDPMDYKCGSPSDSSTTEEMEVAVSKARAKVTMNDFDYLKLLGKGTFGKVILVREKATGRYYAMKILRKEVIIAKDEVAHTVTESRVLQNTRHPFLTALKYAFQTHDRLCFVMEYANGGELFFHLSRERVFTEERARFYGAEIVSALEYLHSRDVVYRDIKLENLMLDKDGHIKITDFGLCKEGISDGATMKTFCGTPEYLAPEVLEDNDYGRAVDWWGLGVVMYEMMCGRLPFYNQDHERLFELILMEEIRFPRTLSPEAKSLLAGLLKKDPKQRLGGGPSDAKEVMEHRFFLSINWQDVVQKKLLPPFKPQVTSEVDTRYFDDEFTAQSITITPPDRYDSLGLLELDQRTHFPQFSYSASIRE

In the case of `Cc1cccc(-c2nc(C3CN(Cc4ccc(-c5nc6nc(C)nn6c(C)c5-c5ccccc5)cc4)C3)n[nH]2)n1`, the results for the IC50 in test [1] and in test [2] were 10 nM and 8 nM, respectively.

Consider `CS(=O)(=O)c1nc2nc(-c3ccc(CN4CCC(c5n[nH]c(-c6ccccn6)n5)CC4)cc3)c(-c3ccccc3)cn2n1`, for which the IC50 in test [1] was found to be 54 nM; in test [2], 102 nM.

As for `Cc1nc2nc(-c3ccc(CN4CC(c5n[nH]c(-c6ccccn6)n5)C4)cc3)c(-c3ccccc3)c(NC3CCC3)n2n1`, the IC50 in test [1] amounted to 32 nM; in test [2] it was 374 nM.

With `CNc1c(-c2ccccc2)c(-c2ccc(CN3CC(c4n[nH]c(-c5cccc(C)n5)n4)C3)cc2)nc2nc(C)nn12`, the IC50 in test [1] was 11 nM; in test [2] it was 21 nM.

`CSc1nc2nc(-c3ccc(CN4CCC(c5n[nH]c(-c6ccccn6)n5)CC4)cc3)c(-c3ccccc3)cn2n1`: the IC50 in test [1] amounted to 7 nM; in test [2] it was 12 nM.

As to `CSc1nc2nc(-c3ccc(CN4CCC(c5n[nH]c(-c6cccc(C)n6)n5)CC4)cc3)c(-c3ccccc3)cn2n1`, the figures for the IC50 in test [1] and in test [2] were 5 nM and 4 nM, respectively.

On to `CSc1nc2nc(-c3ccc(CN4CC(c5n[nH]c(-c6ccccn6)n5)C4)cc3)c(-c3ccccc3)cn2n1`, for which the IC50 worked out at 5 nM in test [1] and 100 nM in test [2].

`Cc1nc2nc(-c3ccc(CN4CC(c5n[nH]c(-c6ccccn6)n5)C4)cc3)c(-c3ccccc3)c(NC(C)C)n2n1`: the IC50 is 15 nM and 9 nM in test [1]; 31 nM and 20 nM in test [2].

For `Cc1nc2nc(-c3ccc(CN4CC(c5n[nH]c(-c6ccccn6)n5)C4)cc3)c(-c3ccccc3)c(C)n2n1`, the figures for the IC50 in test [1] and in test [2] were 7 nM and 17 nM, respectively.
